Patent US9482666B2, “High throughput selection of specific cell binding and lytic polypeptides” (priority 2011, dated 2016)

How the values were obtained:
Assay in all cases: Functional assay on peptide microarray (CTO/AF555 profile)
S. mutans UAB147 = type: cell-based, Streptococcus mutans; details: SM; CTO and AF555 labeled cells
Text: (§1) In order to make our technology more informative, we have developed a procedure for distinguishing those classes of peptides directly on the microarray (see FIG. 1c). Using the intracellular stain CTO we detected the first class (peptide-binders) and the third class (no activity). We decided to involve additional reference dye “Alexa Fluor-555” with an NHS ester active group that attack free amines present in membrane-bound proteins. It was expected, and subsequently shown, that peptide-binders should have signals dominated by both dyes on parallel arrays (profile CTO+AF+). In the case of peptides with killing activity, CTO should leak out of cells once the membrane is disrupted (profile CTO−AF+).
(§2) Before probing, the slides were treated with 90% TFA (trifluor-acetic acid) to get rid of non-immobilized peptides, blocking groups and probable organic impurities followed by DMF, ethanol and deionized water washing. […]
(§3) Turbidity of overnight cultures was measured at OD600. The CFU/ml value was calculated according to McFarland turbidity standard. […]
(§4) Microarrays were scanned by using a Perkin-Elmer ProScanArray HT Microarray Scanner with the 488, 543 and 633 nm excitation lasers at 100% power and 70% photomultiplier tube gain. […] All scanned images were analyzed by using GenePix Pro 6.0 software (Axon Instruments, Union City, Calif., USA). […]

B. subtilis = type: cell-based, Bacillus subtilis; details: BS; CTO and AF555 labeled cells
Text: as §1, §2, §3, §4

E. coli O111:B4 = type: cell-based, Escherichia coli O111:B4; details: EC; CTO and AF555 labeled cells
Text: as §1, §2, §3, §4

S. aureus UAB637 = type: cell-based, Staphylococcus aureus; details: SA; CTO and AF555 labeled cells
Text: as §1, §2, §3, §4

P. aeruginosa PAO-1 = type: cell-based, Pseudomonas aeruginosa; details: PA; CTO and AF555 labeled cells
Text: as §1, §2, §3, §4

Row | Sequence | microarray profile (lytic / binder / no profile) (S. mutans UAB147) | microarray profile (lytic / binder / no profile) (B. subtilis) | microarray profile (lytic / binder / no profile) (E. coli O111:B4) | microarray profile (lytic / binder / no profile) (S. aureus UAB637) | microarray profile (lytic / binder / no profile) (P. aeruginosa PAO-1)
1 | DRIFHKMQHKPYKIKKRGSC | lytic | no profile | binder | binder | lytic
2 | RWRRHKHFKRPHRKHKRGSC | lytic | lytic | no profile | lytic | lytic
